Source: US9115072B2, “Compounds and method for reducing uric acid” (WELLSTAT THERAPEUTICS CORPORATION, priority 2008, dated 2015)
“And” between values parts separate entries of the source, which are not always exact repeats. Identical values can stand only once.

Experiment: Mouse oral single-dose pharmacokinetic study
Type: in vivo
Details: for Compound EH Concentration in mouse PLASMA: individual mice; for Compound EH concentr., mean: Data from Sigma Stat
Experimental: • 1. Mice received single oral gavage of Compound EH, 100 mg/kg, and plasma was collected at certain times. • 2. Plasma was stored at −80° C. until the day of analysis. • 3. Samples were thawed on 37° C. bath for 5 min and vortexed at top speed for 10 sec. • 4. Mouse plasma, 0.1 mL was mixed with 0.2 mL Acetonitrile, vortexed 1 min, spun down 14000 rpm, 17000 g, at 4° C., for 25 min. • 5. Supernatants were filtered through 0.45 micron, 4 mm, PTFE membrane syringe filter (Phenomenex #AF0-3102-52), and 15 microL were injected and resolved on Luna 3 micron, 100 A pore, C8(2), 150×3 mm, reverse phase column (Phenomenex#00E-4248-YO, SN#259151-7) in 50 min linear gradient from 40% to 69% of (0.1% Formic Acid, 89.9% Acetonitrile, 10% Methanol) at 0.25 mL/min, 100 bar, 37° C. column temperature, method 406975M1, Sequence 0205-09A, Agilent 1100 LC-MS.
All samples were run in duplicate, 210 nm and 230 nm Absorbances, Negative and Positive ionization spectrograms recorded.
• Step 1. Plasma from “Vehicle” animals (pooled), 0.19 mL, was mixed with 0.01 mL 20× stock of Compound EH in Methanol to make 500 microM, 250 microM, 125 microM, . . . , concentrations of Compound EH in plasma. • For example: 190 microL plasma+10 microL of 10 mM Compound EH in methanol=0.2 mL plasma with 500 microM Compound EH. • Step 2. Samples from step 1 were vortexed for 10 sec at top speed. • Step 3. 0.4 mL of acetonitrile was added to all samples from Step 2, and all vials were vortexed at top speed for 1 min • Step 4. All samples from step 3 were spun down 14000 rpm, 17000 g, at 4° C., for 25 min. • Step 5. Supernatants were filtered through 0.45 micron, 4 mm, PTFE membrane syringe filter (Phenomenex #AF0-3102-52), 15 microL were injected and resolved on Luna 3 micron, 100 A pore, C8(2), 150×3 mm, reverse phase column

Which “Compound EH Concentration in mouse PLASMA” value (“Compound EH Concentration” for short) (100 mg/kg single oral gavage, bleed time 0.5 HR, 100 mg/kg) does the source give for Cc1ccc(CC(=O)O)cc1OCc1c(C)cccc1C [Compound EH, 2-(3-(2,6-Dimethylbenzyloxy)-4-methylphenyl)acetic acid] here?
The value was 430 µM and 342 µM and 523 µM.

What about the “Compound EH Concentration” value (100 mg/kg single oral gavage, bleed time 1 HR, 100 mg/kg) of the same compound?
The value was 467 µM and 447 µM and 406 µM.

What about the “Compound EH Concentration” value (100 mg/kg single oral gavage, bleed time 2 HR, 100 mg/kg) of the same compound?
Its value is 178 µM and 238 µM and 241 µM.

And the “Compound EH Concentration” value (100 mg/kg single oral gavage, bleed time 4 HR, 100 mg/kg)?
The value was 148 µM and 154 µM and 134 µM.

And the “Compound EH Concentration” value (100 mg/kg single oral gavage, bleed time 6 HR, 100 mg/kg)?
The value was 93 µM and 268 µM and 231 µM.

And the “Compound EH Concentration” value (100 mg/kg single oral gavage, bleed time 8 HR, 100 mg/kg)?
Its value is 95 µM and 147 µM and 187 µM.

What about the “Compound EH Concentration” value (100 mg/kg single oral gavage, bleed time 12 HR, 100 mg/kg) of the same compound?
The value was 79 µM and 36 µM and 74 µM.

And the “Compound EH Concentration” value (100 mg/kg single oral gavage, bleed time 16 HR, 100 mg/kg)?
Its value is 25 µM and 61 µM.

And the “Compound EH Concentration” value (100 mg/kg single oral gavage, bleed time 24 HR, 100 mg/kg)?
The value was 40 µM and 26 µM and 0.74 µM.

What about the “Compound EH Concentration” value (100 mg/kg single oral gavage, bleed time 48 HR) of the same compound?
Its value is 0 µM.

And the “Compound EH concentr., mean” value (mouse plasma, 100 mg/kg oral, time bleed 0 HR)?
The value was 0 µM.

And the “Compound EH concentr., mean” value (mouse plasma, 100 mg/kg oral, time bleed 0.5 HR)?
The value was 431.7 µM.

And the “Compound EH concentr., mean” value (mouse plasma, 100 mg/kg oral, time bleed 1 HR)?
The value was 440 µM.

And the “Compound EH concentr., mean” value (mouse plasma, 100 mg/kg oral, time bleed 2 HR)?
Its value is 219 µM.

What about the “Compound EH concentr., mean” value (mouse plasma, 100 mg/kg oral, time bleed 4 HR) of the same compound?
The value was 145.3 µM.

And the “Compound EH concentr., mean” value (mouse plasma, 100 mg/kg oral, time bleed 6 HR)?
Its value is 197.3 µM.

What about the “Compound EH concentr., mean” value (mouse plasma, 100 mg/kg oral, time bleed 8 HR) of the same compound?
Its value is 143 µM.

What about the “Compound EH concentr., mean” value (mouse plasma, 100 mg/kg oral, time bleed 12 HR) of the same compound?
Its value is 63 µM.

What about the “Compound EH concentr., mean” value (mouse plasma, 100 mg/kg oral, time bleed 16 HR) of the same compound?
Its value is 43 µM.

And the “Compound EH concentr., mean” value (mouse plasma, 100 mg/kg oral, time bleed 24 HR)?
The value was 22.247 µM.

What about the “Compound EH concentr., mean” value (mouse plasma, 100 mg/kg oral, time bleed 48 HR) of the same compound?
The value was 0 µM.

And the Cmax (mouse plasma, 100 mg/kg single oral gavage)?
Its Cmax is 440 µM.

And the concentration at 0 h (mouse, plasma, 100 mg/kg oral, Time 0 HR, Table 13, read-out: Cpd. EH (mouse plasma concentration))?
The concentration at 0 h was 0 nM.

And the concentration at 0.5 h (mouse, plasma, 100 mg/kg oral, Time 0.5 HR, Table 13, read-out: Cpd. EH (mouse plasma concentration))?
The concentration at 0.5 h was 432 µM.

What about the concentration at 1 h (mouse, plasma, 100 mg/kg oral, Time 1 HR, Table 13, read-out: Cpd. EH (mouse plasma concentration)) of the same compound?
Its concentration at 1 h is 440 µM.

And the concentration at 2 h (mouse, plasma, 100 mg/kg oral, Time 2 HR, Table 13, read-out: Cpd. EH (mouse plasma concentration))?
The concentration at 2 h was 219 µM.

What about the concentration at 4 h (mouse, plasma, 100 mg/kg oral, Time 4 HR, Table 13, read-out: Cpd. EH (mouse plasma concentration)) of the same compound?
Its concentration at 4 h is 145 µM.

What about the concentration at 6 h (mouse, plasma, 100 mg/kg oral, Time 6 HR, Table 13, read-out: Cpd. EH (mouse plasma concentration)) of the same compound?
Its concentration at 6 h is 197 µM.

And the concentration at 8 h (mouse, plasma, 100 mg/kg oral, Time 8 HR, Table 13, read-out: Cpd. EH (mouse plasma concentration))?
Its concentration at 8 h is 143 µM.

And the concentration at 12 h (mouse, plasma, 100 mg/kg oral, Time 12 HR, Table 13, read-out: Cpd. EH (mouse plasma concentration))?
The concentration at 12 h was 63 µM.

And the concentration at 16 h (mouse, plasma, 100 mg/kg oral, Time 16 HR, Table 13, read-out: Cpd. EH (mouse plasma concentration))?
The concentration at 16 h was 43 µM.

And the concentration at 24 h (mouse, plasma, 100 mg/kg oral, Time 24 HR, Table 13, read-out: Cpd. EH (mouse plasma concentration))?
The concentration at 24 h was 22 µM.

What about the concentration at 48 h (mouse, plasma, 100 mg/kg oral, Time 48 HR, Table 13, read-out: Cpd. EH (mouse plasma concentration)) of the same compound?
Its concentration at 48 h is 0 nM.
